Measured values as given in patent US20020052295A1, “Diacyl derivatives of propylene diamine having herbicidal activity” (priority 1999, published 2002).

Assays:
SOLNI [1] = test: Pre-emergence herbicidal activity on SOLNI (black nightshade); format: in vivo, Solanum nigrum; conditions: lowest tested rate giving 80% or greater inhibition, approx. 14 days after planting and treating, greenhouse
In short: (§1)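 Steps: sterilized fertilized topsoil potted; seeds sown, covered; compound (50:50 acetone/water dilution) applied to soil surface; 0.64 cm overhead irrigation; greenhouse 30/21 °C day/night; % inhibition vs untreated scored at ~14 d; GR80 calculated.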

CIRAR [2] = test: Pre-emergence herbicidal activity on CIRAR (canada thistle, seedling); format: in vivo, Cirsium arvense; conditions: lowest tested rate giving 80% or greater inhibition, approx. 14 days after planting and treating, greenhouse
In short: as §1

ECHCG [3] = test: Pre-emergence herbicidal activity on ECHCG (barnyardgrass); format: in vivo, Echinochloa crus-galli; conditions: lowest tested rate giving 80% or greater inhibition, approx. 14 days after planting and treating, greenhouse
In short: as §1

PANMI [4] = test: Pre-emergence herbicidal activity on PANMI (wild proso millet); format: in vivo, Panicum miliaceum; conditions: lowest tested rate giving 80% or greater inhibition, approx. 14 days after planting and treating, greenhouse
In short: as §1

SETFA [5] = test: Pre-emergence herbicidal activity on SETFA (giant foxtail); format: in vivo, Setaria faberi; conditions: lowest tested rate giving 80% or greater inhibition, approx. 14 days after planting and treating, greenhouse
In short: as §1

BRAPP [6] = test: Pre-emergence herbicidal activity on BRAPP (broadleaf signalgrass); format: in vivo, Brachiaria platyphylla; conditions: lowest tested rate giving 80% or greater inhibition, approx. 14 days after planting and treating, greenhouse
In short: as §1

DIGSA [7] = test: Pre-emergence herbicidal activity on DIGSA (large crabgrass); format: in vivo, Digitaria sanguinalis; conditions: lowest tested rate giving 80% or greater inhibition, approx. 14 days after planting and treating, greenhouse
In short: as §1

ABUTH = test: Post-emergence herbicidal activity on ABUTH (velvetleaf); format: in vivo, Abutilon theophrasti; conditions: post-emergence spray; lowest tested rate with 80% or greater inhibition; about 14 days after treatment
Description: (§2) All such uses, and the biological activity enabling such uses, are embraced by the term “herbicidal” herein. Tables 15 and 16 summarize results of tests conducted as described below to determine the pre-emergence herbicidal activity, in the form of a GR80 value, of illustrative compounds of this invention. […] Where herbicidal activity was evident but 80% inhibition was not achieved at the highest rate tested (typically 1000 g/ha), an asterisk (*) is shown in the following tables. Herbicidal activity evident in the form of symptoms of phytotoxicity, in the absence of at least 80% inhibition at any rate, is indicated in the tables by “phyto”. A blank cell in the following tables indicates no herbicidal or phytotoxic response at any rate tested.
(§3) In another set of tests, the post-emergence activity of compounds of this invention was evaluated on the cool season species listed above. The following procedure was used.
(§4) A pre-prepared topsoil mixture (described above) was placed in a pot and compacted to a depth of 1.0 to 1.25 cm from the top of the pot. Seeds of each of several monocotyledonous and dicotyledonous annual plant species were placed on top of the soil The seeds were covered with a mixture of 50% topsoil and 50% Rediearth™ in sufficient quantity to level-fill the pots. The pots were then placed on a greenhouse bench and subirrigated as needed until plants growing from the seeds had emerged and reached a suitable growth stage for post-emergence treatment, typically 9 to 14 days after planting.
(§5) A known amount of each test compound dissolved or suspended in an appropriate organic solvent was diluted with a 50:50 mix of acetone and water and applied to the plants by spraying with a standard spray nozzle in a spray volume of 3,100 l/ha at a spray pressure of […] (30 psig). Control plants were not sprayed.
(§6) After treatment the plants were placed in a greenhouse with a 30/21° C. day/night temperature regime and were subsequently watered as needed for growth. Approximately 14 days after treatment, the plants were observed and herbicidal efficacy recorded as percent inhibition by comparison with control plants.

SOLNI [8] = test: Post-emergence herbicidal activity on SOLNI (black nightshade); format: in vivo, Solanum nigrum; conditions: post-emergence spray; lowest tested rate with 80% or greater inhibition; about 14 days after treatment
Description: as §2, §3, §4, §5, §6

AMARE = test: Post-emergence herbicidal activity on AMARE (redroot pigweed); format: in vivo, Amaranthus retroflexus; conditions: post-emergence spray; lowest tested rate with 80% or greater inhibition; about 14 days after treatment
Description: as §2, §3, §4, §5, §6

DATST = test: Post-emergence herbicidal activity on DATST (jimsonweed); format: in vivo, Datura stramonium; conditions: post-emergence spray; lowest tested rate with 80% or greater inhibition; about 14 days after treatment
Description: as §2, §3, §4, §5, §6

CHEAL = test: Post-emergence herbicidal activity on CHEAL (common lambsquarters); format: in vivo, Chenopodium album; conditions: post-emergence spray; lowest tested rate with 80% or greater inhibition; about 14 days after treatment
Description: as §2, §3, §4, §5, §6

CONAR = test: Post-emergence herbicidal activity on CONAR (field bindweed); format: in vivo, Convolvulus arvensis; conditions: post-emergence spray; lowest tested rate with 80% or greater inhibition; about 14 days after treatment
Description: as §2, §3, §4, §5, §6

POROL = test: Post-emergence herbicidal activity on POROL (common purslane; table head prints PORAL); format: in vivo, Portulaca oleracea; conditions: post-emergence spray; lowest tested rate with 80% or greater inhibition; about 14 days after treatment
Description: as §2, §3, §4, §5, §6

ECHCG [9] = test: Post-emergence herbicidal activity on ECHCG (barnyardgrass); format: in vivo, Echinochloa crus-galli; conditions: post-emergence spray; lowest tested rate with 80% or greater inhibition; about 14 days after treatment
Description: as §2, §3, §4, §5, §6

PANMI [10] = test: Post-emergence herbicidal activity on PANMI (wild proso millet); format: in vivo, Panicum miliaceum; conditions: post-emergence spray; lowest tested rate with 80% or greater inhibition; about 14 days after treatment
SORHA = test: Post-emergence herbicidal activity on SORHA (johnsongrass, seedling); format: in vivo, Sorghum halepense; conditions: post-emergence spray; lowest tested rate with 80% or greater inhibition; about 14 days after treatment
Description: as §2, §3, §4, §5, §6

SETFA [11] = test: Post-emergence herbicidal activity on SETFA (giant foxtail); format: in vivo, Setaria faberi; conditions: post-emergence spray; lowest tested rate with 80% or greater inhibition; about 14 days after treatment
Description: as §2, §3, §4, §5, §6

PANDI = test: Post-emergence herbicidal activity on PANDI (fall panicum); format: in vivo, Panicum dichotomiflorum; conditions: post-emergence spray; lowest tested rate with 80% or greater inhibition; about 14 days after treatment
Description: as §2, §3, §4, §5, §6

SORVU = test: Post-emergence herbicidal activity on SORVU (shattercane); format: in vivo, Sorghum vulgare; conditions: post-emergence spray; lowest tested rate with 80% or greater inhibition; about 14 days after treatment
Description: as §2, §3, §4, §5, §6

BRAPP [12] = test: Post-emergence herbicidal activity on BRAPP (broadleaf signalgrass); format: in vivo, Brachiaria platyphylla; conditions: post-emergence spray; lowest tested rate with 80% or greater inhibition; about 14 days after treatment
Description: as §2, §3, §4, §5, §6

DIGSA [13] = test: Post-emergence herbicidal activity on DIGSA (large crabgrass); format: in vivo, Digitaria sanguinalis; conditions: post-emergence spray; lowest tested rate with 80% or greater inhibition; about 14 days after treatment
CIRAR [14] = test: Post-emergence herbicidal activity on CIRAR (canada thistle, seedling); format: in vivo, Cirsium arvense; conditions: post-emergence spray; lowest tested rate with 80% or greater inhibition; about 14 days after treatment
Description: as §2, §3, §4, §5, §6

Structure (SMILES) | Post-emergence activity (GR80) ABUTH (ABUTH) | Post-emergence activity (GR80) SOLNI (SOLNI [8]) | Post-emergence activity (GR80) AMARE (AMARE) | Post-emergence activity (GR80) DATST (DATST) | Post-emergence activity (GR80) CHEAL (CHEAL) | Post-emergence activity (GR80) PORAL (POROL) | Post-emergence activity (GR80) ECHCG (ECHCG [9]) | Post-emergence activity (GR80) PANMI (PANMI [10]) | Post-emergence activity (GR80) SORHA (SORHA) | Post-emergence activity (GR80) PANDI (PANDI) | Post-emergence activity (GR80) SORVU (SORVU) | Post-emergence activity (GR80) BRAPP (BRAPP [12]) | Post-emergence activity (GR80) DIGSA (DIGSA [13]) | also measured
C=C(C)CSc1ccccc1C(=O)NC(C)CNC(=O)c1cccc(C(F)(F)F)c1 (stereo not drawn) [Example 124] | phyto | phyto | phyto | phyto | [empty] | phyto | [empty] | [empty] | [empty] | [empty] | [empty] | [empty] | [empty] | Pre-emergence activity (GR80) on SOLNI (SOLNI [1]): phyto; Pre-emergence activity (GR80) on CIRAR (CIRAR [2]): 1000 g/ha; Pre-emergence activity (GR80) on ECHCG (ECHCG [3]): phyto; Pre-emergence activity (GR80) on PANMI (PANMI [4]): phyto; Pre-emergence activity (GR80) on SETFA (SETFA [5]): phyto; Pre-emergence activity (GR80) on BRAPP (BRAPP [6]): phyto; Pre-emergence activity (GR80) on DIGSA (DIGSA [7]): 1000 g/ha; Post-emergence activity (GR80) CONAR (CONAR): phyto; Post-emergence activity (GR80) SETFA (SETFA [11]): [empty]
O=C(NCC(CO)NC(=O)c1cccc(C(F)(F)F)c1)c1cccc(C(F)(F)F)c1 (stereo not drawn) [Example 11, N,N′-(3-hydroxy-1,2-propanediylbis)-3-(trifluoromethyl)benzamide] | [empty] | [empty] | phyto | phyto | [empty] | [empty] | [empty] | [empty] | [empty] | [empty] | [empty] | [empty] | [empty] | Post-emergence activity (GR80) CIRAR (CIRAR [14]): [empty]
